Experimental data published in patent US5962525A, “6,7-disubstituted-2-aminotetralines active as immunomodulators and pharmaceutical compositions containing same” (Sigma-Tau, priority 1990, dated 1999).
“And” between values parts separate entries of the source, which are not always exact repeats. Equal entries are not always repeated. Where two headings read alike, the source gives them in different places.

What was measured:
[1] = test system: murine peritoneal exudate cells (PEC); assay: "In vitro-ex vivo" effect on the phagocytic activity of exudate peritoneal cells (SRBC phagocytosis); parameters: species or system mouse (B6 D2 F1); details: for SRBC per phagocytizing cell: average number of SRBC in each phagocyte
Procedure: Assessment of the "in vitro-ex vivo" effect of ST 557, ST 563, ST 564, ST 570, ST 608 and ST 626 on the phagocytic activity of exudate peritoneal cells (PEC)
Male B6 D2 F1 mice aged 6-8 weeks (5 animals each group) were used.
The compounds were administered i.p. (25 mg/kg/day), ST 557, ST 563 and ST 626 were also administered per os (100 mg/kg/day) from day -5 to day -1 (PEC harvesting at day 0).
The experimental procedure was substantially the same as that described by Williams et al., in "Methods in Immunology and Immunochemistry", Acad. Press. 5: 261 (1976).
In particular, 24 hours following the end of the treatment, PECs from each experimental group were harvested, pooled and their concentration was adjusted to 4×10^6 cells/ml.
To volumes of 250 μl of each PEC sample were added equal volumes of 0.4% SRBC (Sheep Red Blood Cells) opsonized with hyperimmune serum.
The samples (duplicate) were incubated for 1 hour and then subjected to hypotonic shock in order to remove the non-phagocytized SRBC. After restoring the osmolarity, the phagocytes were cytocentrifuged, stained with a differential dye and observed under the microscope.
The results were expressed as:
(a) percentage of cells that have phagocytized with respect to 100 phagocytizing cells;
(b) total number of phagocytized SRBC;
(c) average number of SRBC in each phagocyte.

[2] = test system: splenocytes; assay: "In vitro-ex vivo" effect on the mytogen (PHA, LPS)-induced splenocyte proliferation in mice; parameters: species or system mouse (B6 D2 F1); details: 25 mg/kg/day i.p.
Procedure: Assessment of the "in vitro-ex vivo" effect of ST 557, ST 563, ST 608 on the mytogen (PHA, LPS)-induced splenocyte proliferation in mice
Male B6 D2 F1 mice aged 6-10 weeks (4 animals per group) were used.
The compounds were administered i.p. 25 mg/kg/day, from day -5 to -1 (spleen excision at day 0).
PHA (active on T lymphocytes) and LPS (active on B lymphocytes) were used as mytogens. Each mytogen was tested at three different concentrations (suboptimal, optimal, superoptimal): 0.5, 4 and 6 mcg/ml/well and 0.5, 150 and 500 mcg/ml/well, respectively.
The experimental procedure was conducted substantially as described by Kirchner et al., "Splenic suppressor macrophages induced in mice by injection of C. parvum", J. Immunol., 1975, 115: 1212.
In particular, the cell suspensions obtained from the spleens of the animals of the same group were pooled and the cell concentration was adjusted to 5×10^6 cells/ml.
To volumes of 0.1 ml of each sample, equal volumes of the mytogen preparations were added so as to obtain, for each mytogen, the previously indicated final concentrations.
Each sample was prepared in triplicate in U-bottom microtiters. A control, to which 0.1 ml of medium were added instead of the mytogen, was also prepared. The control permits the extent of spontaneous proliferation in the absence of stimulation to be assessed.
The samples were incubated at 37° C. for 48 hours and then they were pulsed with 20 μl ^3 H-TdR (25 μCi/ml).
After 18 hours of further incubation, the cells were collected on filters and counted in a beta-counter.
The results of each sample are expressed by calculating the value of the area under the curve (AUC) obtained by plotting the values of the incorporated radioactivity (in cpm) versus the various concentrations of each mytogen.
In addition to AUC, the stimulation index (SI) is also considered, that is defined as follows. [formula]

[3] = Tolerability after oral or intravenous administration; parameters: species or system mouse (Swiss albino); details: mouse, in vivo, 7 days observation, read-out: Tolerability, dose
Procedure: The test was conducted in male Swiss albino mice weighing 22-24 g.
A group of animals (4 animals/dose) which had been kept fasting for 18 hours, were orally administered the compounds ST 557, ST 563, ST 564 and ST 570 dissolved in twice distilled water.
A further group of animals, which had free access to food and water, were administered intravenously the same compounds dissolved in saline it pH 7. All the animals were kept under observation for 7 days.

[4] = test system: murine peritoneal macrophages; tumor targets Daudi and CEM-CM3; assay: "In vitro-ex vivo" effect on the cytotoxic activity of peritoneal macrophages (lysis of 3H-TdR labelled tumor cells); parameters: species or system mouse (B6 D2 F1, C57B16); tumor targets human
Procedure: Assessment of the "in vitro-ex vivo" effect of ST 557, ST 563, ST 570 and ST 626 on the cytotoxic activity of peritoneal macrophages (M)
Male hybrid B6 D2 F1 aged 7-9 weeks and male inbred mice C57B16 aged 8 weeks were used (4 animals/group).
All the compounds were administered i.p. (25 mg/kg/day). ST 557 was also administered per os (100 mg/kg/day) from day -5 to day -1 (peritoneal exudate cell [PEC] harvesting at day 0).
PEC were obtained from sacrificed animals, 24 hours following the end of treatment, via repeated washings of the abdominal cavity. The peritoneal exudates obtained from each group of animals were pooled.
The macrophage percentage was assessed by counting in a Burker chamber; cell suspensions (concentration=2×10^6 M/ml) were prepared.
The macrophage cytotoxic activity was assessed using the following two tumor cell lines as targets: Daudi, derived from a human lymphoblastoma and CEM-CM3, derived from human lymphoblastic leukemia (both lines are disclosed in ATCC--American Type Culture Collection--Cell lines of hybridoma, 5th Ed.--1985).
The experimental procedure is substantially the same as that described by Herscowitz, H. B. (1981)--Manual of Macrophage Methodology. Dekker M, Editor.
In particular, samples of cell lines were labelled with ^3 H-TdR (tritiated thymidine) and their concentration was adjusted to 5×10^4 cells/ml. They were then added to the macrophage preparations (using 96-well microtiter plates) and the volumes were adjusted so as to obtain Effector (macrophage)/Target (tumor cell) ratios of 20:1; 40:1 and 80:1 in an overall volume of 0.3 ml/well.
Three replicates for each sample were prepared; after 48 and 72 hours of incubation at 37° C. in 5% CO2. Aliquots of 0.1 ml of supernatant were drawn out from each well and counted in a β-counter.
The macrophage cytotoxic activity results in a tumor cell lysis that causes the release of the radioactivity incorporated by the cells into the supernatant.
Based on the βeta-counter data (in cpm) this activity is expressed as the percentage of radioactivity released following lysis with respect to the radioactivity incorporated by the tumor cells.
The relevant formulas are as follows: [formula]
The measures carried out on the samples account for a certain degree of lysis occurring spontaneously in cultured tumor cells not exposed to macrophages. Total radioactivity incorporated by the tumor cells is calculated by conducting a lysis with 1% SDS in distilled water.

[5] = test system: murine peritoneal exudate cells (PEC); assay: "In vitro-ex vivo" effect on the phagocytic activity of exudate peritoneal cells (SRBC phagocytosis); parameters: species or system mouse (B6 D2 F1); details: 26 mg/kg/day i.p. (so in the source)
[6] = test system: peritoneal macrophages of treated mice; target tumor cells; assay: "In vitro-ex vivo" effect on the cytostatic activity of peritoneal macrophages; parameters: species or system mouse (B6 D2 F1); tumor targets human
Procedure: Assessment of the "in vitro-ex vivo" effect of ST 557, ST 563 and ST 570 on the cytostatic activity of peritoneal macrophages
Male B6 D2 F1 mice aged 7-9 weeks (5 animals per group) were used.
The compounds were administered i.p. (25 mg/kg/day), ST 557 and ST 563 were also administered per os (100 mg/kg/day) from day -5 to day -1 (peritoneal cell harvesting at day 0).
The macrophages and target tumor cell lines were prepared as in test 1 and their concentrations were adjusted to 1×10^6 M/ml and 5×10^4 cell/ml, respectively.
Volumes of tumor cells were added to the macrophage preparations so as to obtain Effector/Target ratios of 10:1, 20:1 and 40:1.
Each sample was pulsed with ^3 H-TdR for 18 hours in order to label the tumor cells, which were then collected on filters and counted in a beta-counter.
The macrophage cytostatic activity is expressed as percentage inhibition of tumor cell replication, by assessing the radioactivity incorporated by the tumor cells in each sample with respect to the maximum radioactivity incorporated by a sample consisting of tumor cells only. [formula]

[7] = 48 hours, E/T 20:1, 25 mg/kg/day i.p., B6 D2 F1
[8] = 48 hours, E/T 20:1, 25 mg/kg/day i.p., repeated experiment, B6 D2 F1
[9] = 48 hours, E/T 20:1, 25 mg/kg/day i.p., repeated experiment, C57B16 mice
[10] = 48 hours, E/T 40:1, 25 mg/kg/day i.p., B6 D2 F1
[11] = 48 hours, E/T 40:1, 25 mg/kg/day i.p., repeated experiment, B6 D2 F1
[12] = 48 hours, E/T 40:1, 25 mg/kg/day i.p., repeated experiment, C57B16 mice
[13] = 48 hours, E/T 80:1, 25 mg/kg/day i.p., repeated experiment, B6 D2 F1
[14] = 72 hours, E/T 20:1, 25 mg/kg/day i.p., B6 D2 F1
[15] = 72 hours, E/T 20:1, 25 mg/kg/day i.p., repeated experiment, B6 D2 F1
[16] = 72 hours, E/T 20:1, 25 mg/kg/day i.p., repeated experiment, C57B16 mice
[17] = 72 hours, E/T 40:1, 25 mg/kg/day i.p., B6 D2 F1
[18] = 72 hours, E/T 40:1, 25 mg/kg/day i.p., repeated experiment, B6 D2 F1
[19] = 72 hours, E/T 40:1, 25 mg/kg/day i.p., repeated experiment, C57B16 mice
[20] = 72 hours, E/T 80:1, 25 mg/kg/day i.p., repeated experiment, B6 D2 F1

Row | SMILES | Fagocytizing cells ([1]; 25 mg/kg/day i.p.) [%] | Total n° SRBC phagocytized ([1]; 25 mg/kg/day i.p.) | SRBC per phagocytizing cell ([1]; 25 mg/kg/day i.p.) | % lysis of tumor target [4, 7] [%] | % lysis of tumor target [4, 8] [%] | % lysis of tumor target [4, 9] [%] | % lysis of tumor target [4, 10] [%] | % lysis of tumor target [4, 11] | % lysis of tumor target [4, 12] [%] | % lysis of tumor target [4, 13] | % lysis of tumor target [4, 14] [%] | % lysis of tumor target [4, 15] [%] | % lysis of tumor target [4, 16] [%] | % lysis of tumor target [4, 17] [%] | % lysis of tumor target [4, 18] | % lysis of tumor target [4, 19] [%] | % lysis of tumor target [4, 20] | further results
1 | CCCNC1CCc2cc(OC(C)=O)c(OC(C)=O)cc2C1 (stereo not shown) [ST 608, 2-N-propylamino-6,7-diacetoxytetraline] | 41.0 | 137.5 | 3.30 |  |  |  |  |  |  |  |  |  |  |  |  |  |  | AUC (area under curve, incorporated radioactivity vs mytogen concentration) ([2]; LPS): 10333 ± 807 ×10^-3 and 18054 ± 970 ×10^-3 and 14490 ± 433 ×10^-3 and 15892 ± 339 ×10^-3; S.I. (stimulation index) ([2]; LPS): 1.27 and 1.10 and 1.20 and 1.06; AUC (area under curve, incorporated radioactivity vs mytogen concentration) ([2]; PHA): 183 ± 6 ×10^-3 and 128 ± 4 ×10^-3 and 146 ± 4 ×10^-3 and 233 ± 2 ×10^-3; S.I. (stimulation index) ([2]; PHA): 1.11 and 1.04 and 1.07 and 1.12
2 | CCN(CC(O)c1ccccc1)C1CCc2cc(OC)c(OC)cc2C1 (stereo not shown) [ST 570, 2-[(N-ethyl, N-2-hydroxy-2-phenylethyl)amino]-6,7-dimethoxytetraline] |  |  |  | 14.0 ± 0.7 | 9.0 ± 0.4 | 8.8 ± 1.2 | 34.7 ± 1.2 | 10.9 ± 1.0% | 13.0 ± 0.5 | 19.0 ± 1.0% | 19.3 ± 0.7 | 13.2 ± 0.2 | 10.8 ± 1.5 | 45.4 ± 2.1 | 15.7 ± 0.8% | 14.9 ± 0.3 | 25.3 ± 1.0% | MTD at 168 h ([3]; iv): > 20 mg/kg; MTD at 168 h ([3]; po, os, fasting 18 hours): > 50 mg/kg; % lysis of tumor target ([4]; 48 hours, E/T 80:1, 25 mg/kg/day i.p., repeated experiment, C57B16 mice): 14.6 ± 0.6%; % lysis of tumor target ([4]; 72 hours, E/T 80:1, 25 mg/kg/day i.p., repeated experiment, C57B16 mice): 16.2 ± 0.8%; Fagocytizing cells [5]: 41.0%; SRBC per phagocytizing cell ([5]; average number of SRBC in each phagocyte): 3.3; % of inhibition of target tumor growth ([6]; E/T 20:1, 25 mg/kg/day i.p.): 38.3 ± 2.5%; % of inhibition of target tumor growth ([6]; E/T 40:1, 25 mg/kg/day i.p.): 71.0 ± 2.4%
3 | COc1cc2c(cc1F)CCC(N)C2 (stereo not shown) [ST 626, 2-amino-6-fluoro-7-methoxytetraline] | 41.0 | 137.5 | 3.30 | 7.4 ± 0.2 | 8.0 ± 0.8 | 11.8 ± 0.6 | 12.8 ± 0.8 | 18.7 ± 0.1% and 11.6 ± 0.7% | 12.7 ± 0.1 | 18.8 ± 0.1% and 28.0 ± 5.6% | 10.8 ± 0.3 | 12.3 ± 0.6 | 12.6 ± 0.1 | 17.6 ± 0.8 | 27.5 ± 0.6% and 14.3 ± 0.6% | 13.5 ± 0.7 | 28.0 ± 0.7% and 32.0 ± 4.3% | Fagocytizing cells ([1]; 100 mg/kg/day os): 57.0%; Total n° SRBC phagocytized ([1]; 100 mg/kg/day os): 222.0; SRBC per phagocytizing cell ([1]; 100 mg/kg/day os): 3.89
